Test results: patent US10487056B2, “Small molecule androgen receptor inhibitors and methods of use thereof” (GEORGETOWN UNIVERSITY, priority 2015, dated 2019)

Assays:
Type in all cases: cell-based
AR [1] = assay: VCaP-MDVR-ARE-luc luciferase reporter assay; details: VCaP-MDVR-ARE-luc cells, range of doses, 24 hours
Protocol: (§1) […]. Luciferase activity was measured and plotted as a percentage of control. Data represent the mean of three independent experiments with quadruplicate samples; bars, SEM. ***, p value <0.001 determined by ANOVA.
(§2) VCaP-MDVR and 22Rv1-MDVR stably expressing ARE-luciferase construct (VCaP-MDVR-ARE-luc and 22Rv1-MDVR-ARE-luc) were generated as described above in the Materials and Methods section. […].

AR and AR-V7 = assay: Western blot of AR and AR-V7 levels in 22Rv1 cells; details: 3 days, SH-I-125 at 1 μM
Protocol: AR levels were assessed by Western blotting. β-actin was used as a loading control.
(§3) AR and AR-V7 levels were assessed. β-actin was used as a loading control.
as §3
MG132 (5 μM), a known proteasome inhibitor, was added on Day 2. AR expression was assessed by Western blotting. β-actin was used as a loading control.

VCaP-MDVR cells = assay: Cell viability (MTT), VCaP-MDVR cells; details: MDV3100, ARN-509 10 μM, SH-I-125 range, 3 days
Protocol: (§6) Cell viability was measured using the MTT assay.

22Rv1 cells [2] = assay: Caspase-Glo 3/7 activity assay, 22Rv1 cells; details: 3 days
Protocol: 22Rv1 cells were treated with SH-I-125 (1 μM) for one, two, or three days, and caspase 3/7 activity was measured using Caspase-Glo 3/7 substrates. […] Data represent mean of three independent experiments with quadruplicate samples; bars, SEM. ***, p value <0.001 determined by ANOVA.
(§4) Caspase 3/7 activity was measured using Caspase-Glo 3/7 substrates. Data represent mean of three independent experiments with quadruplicate samples; bars, SEM. ***, p value <0.001 determined by ANOVA.
[…]; Madison, Wis.).
. […] Staurosporine was used as a positive control for apoptosis induction (FIG. 10B).

VCaP cells = assay: Caspase-Glo 3/7 activity assay, VCaP cells; details: 3 days
Protocol: as §4

AR [3] = assay: Immunofluorescence staining of AR and PSA in VCaP-MDVR cells; details: DHT 1 nM, MDV3100 10 μM or SH-I-125 1 μM, 24 hours
Protocol: AR and PSA expression levels were assessed.
(§5) Immunofluorescence staining was performed as described in Amin et al., Mol. Cancer Ther., 13:341-52 (2014).

AR [4] = assay: 22Rv1-MDVR-ARE-luc luciferase reporter assay; details: 22Rv1-MDVR-ARE-luc cells, range of doses, 24 hours
Protocol: as §1, §2

AR [5] = assay: Immunofluorescence staining of AR in 22Rv1-MDVR cells; details: MDV3100 10 μM, ARN509 10 μM or SH-I-125 1 μM, 24 hours
Protocol: […]. AR and AR-V7 expression levels were assessed.
as §5

22Rv1-MDVR cells = assay: Cell viability (MTT), 22Rv1-MDVR cells; details: MDV3100, ARN-509 10 μM, SH-I-125 range, 3 days
Protocol: as §6

22Rv1 cells [6] = assay: MTT cell viability assay, 22Rv1 cells; details: 3 days
Protocol: Cells were treated in the manner indicated below for the specified period of time. MTT assay was performed as described in Amin et al., Mol. Cancer Ther., 13:341-52 (2014).
To determine the effects of SH-I-125 on prostate cancer cell growth, 22Rv1 cells were treated with SH-I-125 and cell viability was measured after a period of 3 days. […]. In comparison, non-tumorigenic primary prostate epithelial cells (PrEC) retained 80% viability in the presence of a similar range of doses of SH-I-125, showing that tumorigenic cells are more susceptible to the growth inhibitory properties of SH-I-125 compared to non-tumorigenic cells (FIG. 8B). […] Staurosporine was used as a positive control for cell death induction in live and dead assays (FIG. 9C).

AR [7] = assay: 22Rv1-ARE-luc androgen-response element luciferase reporter assay; details: range of doses, 24 hours
Protocol: VCaP and CWR22Rv1 (referred to as 22Rv1) cells were transduced with ARE-luciferase Cignal Lenti Pathway Reporter (Qiagen; Valencia, Calif.) and cultured as described above in the presence of 1 μg/mL puromycin. Following antibiotic selection, cells stably expressing ARE-luciferase were isolated, cloned and cultured to generate a stable ARE-reporter cell lines.

| SMILES | reduction of luciferase activity (AR [1]) | cellular AR and AR-V7 levels (AR and AR-V7) | cell growth / viability (VCaP-MDVR cells) | caspase 3/7 activity (22Rv1 cells [2]) | caspase 3/7 activity (VCaP cells) | AR expression / nuclear localization (AR [3]) | PSA expression (AR [3]) | luciferase activity (AR activity) (AR [4]) | AR nuclear localization (AR [5]) | cell growth / viability (22Rv1-MDVR cells) | prevention of growth compared with SH-I-125 (22Rv1 cells [6]) | inhibitory effect on ARE-luciferase activity (plateau) (AR [7]) |
| --- | --- | --- | --- | --- | --- | --- | --- | --- | --- | --- | --- | --- |
| CNC(=O)c1ccc(N2C(=S)N(c3ccc(C#N)c(C(F)(F)F)c3)C(=O)C2(C)C)cc1F [MDV3100] | 50% | no effect | continued proliferation | did not have a similar effect | did not have a similar effect | AR expression was not attenuated | continued to inhibit PSA expression | unchanged from control | unaffected | continued proliferation | significantly less effective | – |
| CNC(=O)c1ccc(N2C(=S)N(c3cnc(C#N)c(C(F)(F)F)c3)C(=O)C23CCC3)cc1F [ARN-509] | 50% | no effect | continued proliferation | did not have a similar effect | did not have a similar effect | – | – | unchanged from control | unaffected | continued proliferation | significantly less effective | 50% |
